Laboratory results reported in patent publication US11839213B2, “Antimicrobial, disinfecting, and wound healing compositions and methods for producing and using the same” (Armis Biopharma, Inc., priority 2008, dated 2023).

How the values were obtained:
[1] = test system: C. difficile; test: ASTM E2197-02 disk carrier test against C. difficile spores; type: cell-based; details: C. difficile spores with soil load on stainless steel disks, 10 minutes contact
Experimental: Pyruvic peracid (PPA) and Peroxy α-ketobutyric acid (POKBA) were tested against C. difficile using the ASTM E2197-02 testing method and the results are shown on FIG. 3. […] The method of testing these molecules against C. difficile was designed to evaluate the ability of liquid chemical germicides to inactivate vegetative bacteria, viruses, fungi, mycobacteria and bacterial spores in the presence of a soil load on disk carriers that represent environmental surfaces and medical devices.
This test method is a standard test promulgated by ASTM Committee E35 on Pesticides and Subcommittee E35.15 on Antimicrobial Agents. The stringency in the test is provided by the use of a soil load, the microtopography of the carrier surface and the small ratio of disinfectant to surface area (1:5) typical for many disinfectant applications. Thus the formulation under test is presented with a reasonable challenge while allowing for efficient recovery of the test organisms from the inoculated carriers with or without their exposure to the test formulation.
The metal disks used in the basic test are also compatible with a wide variety of germicidal actives and most surfaces in consumer based product manufacturing and health care facilities. The design of the metal discs makes it possible to place onto each precisely measured volume of the test organism (28 μL) as well as the test formulation (125 μL). […]

[2] = test system: MRSA; test: Spray test, log reduction of MRSA; type: cell-based; details: derived from 10% pyruvate and 3% H2O2; no growth in the broth, complete elimination assumed
Description: A representative list of the organisms tested include, but are not limited to, Bacillus subtilis, Bacillus atrophaeus, Bacillus thuringiensis, Staphylococcus aureus, Salmonella cholerasuis, Pseudomonas aeruginosa, Aspergillus niger, and Trichophyton mentagrophytes. The following exemplifies one procedure derived from disinfectant test methods found in guidelines of the Association of Official Analytical Chemists (AOAC) to meet “log reduction criteria” established by the U.S. Environmental Protection Agency (EPA) and U.S. FDA for certain applications: (1) A tube of the sample-disinfectant is placed into a waterbath for temperature control and allowed to equilibrate; (2) Once the tube has reached temperature, it is inoculated to achieve a concentration of approximately 10^6 CFU/mL; (3) At selected time points (generally five points are used including zero) aliquots are removed and placed into a neutralizer blank; (4) Dilutions of the neutralizer are made and selected dilutions plated onto agar; (5) Colonies are enumerated and log reductions are calculated.
In order to obtain observable significant reductions (on the order of 106) of surface bacteria, a high number of viable CFU/in^2 must be available for treatment on the surface to be disinfected. […]
The effectiveness of treatments was evaluated by enumeration of the surviving bacteria on the slide. […]

| SMILES | activity against C. difficile (comparison, FIG. 3) [1] | log reduction of the MRSA control [2] |
| --- | --- | --- |
| CCC(=O)C(=O)OO [POKBA, Peroxy-alpha-Ketobutyric Acid] | significantly more active compared to PPA |  |
| CC(=O)C(=O)OO [peroxy pyruvic acid] |  | approximately 6 logs |
